Test [1] has as its target PCSK9 (Homo sapiens, UniProt Q8NBP7). As to the kind of experiment: Fluorescence polarization competition binding assay (probe: compound of Example 57). The conditions noted are these: 2 μM PCSK9, 50 nM compound of Example 57 as probe, overnight incubation; read-out: FP IC. An outline of the steps:
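Competition fluorescence-polarization binding: 2 μM PCSK9 with 50 nM fluorescent probe in 20 mM HEPES pH 7.5, 150 mM NaCl, 1 mM CaCl2, 0.005% P-20, incubated with test compound overnight in the dark. Anisotropy read; % inhibition relative to DMSO wells and probe-without-PCSK9 wells.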
On the technique in general: Fluorescence polarisation rises when a labelled molecule tumbles more slowly, as on binding a larger partner.

Test [2] addresses T1, HEK293 cells stably overexpressing PCSK9 (Homo sapiens, UniProt Q8NBP7).
T1 construct: expressed in transfected cells
As to the kind of experiment: Protein degradation assay (Western Blot/Sally Sue assay). Conditions: 24 hrs compound treatment, serum free DMEM. It counts as cell-based. How it is done:
Samples were run on the Sally Simple Western system from ProteinSimple (San Jose, Calif.) using default assay conditions. Briefly, 5×10^4 HEK293 cells stably overexpressing PCSK9 were seeded into Collagen I coated 96 well plates and allowed to recover overnight at 37° C. with 5% CO2. After 24 hrs of compound treatment in serum free DMEM cell culture medium, cells were washed with PBS and lysed in 100 ul RIPA buffer (Teknova) supplemented with protease inhibitors and subsequently mixed with fluorescent standards as per manufacturer's specifications, followed by denaturation at 95° C. for 5 minutes. Anti-PCSK9 mAb antibody (Abbomax, Cat. No. 601-650) was used for PCSK9 detection. The reported DC50 values represent the effective concentration of compound to lower PCSK9 protein levels, pro and mature, by 50%.
On the technique in general: Immunoblotting shows a protein as a band on a membrane.

The mark [3] stands for this setting: mature PCSK9 protein level lowered by 50%, read-out: PCSK9 DC50 (Mature).
[4] abbreviates: pro PCSK9 protein level lowered by 50%, read-out: PCSK9 DC50 (Pro).
The mark [5] stands for this setting: mature PCSK9 protein level lowered by 50%.
Where [6] appears, read: pro PCSK9 protein level lowered by 50%.

Each structure is given as a SMILES string. Like-named read-outs stand apart in the source and are kept apart here.

Chain of PCSK9 (Q8NBP7 153-692): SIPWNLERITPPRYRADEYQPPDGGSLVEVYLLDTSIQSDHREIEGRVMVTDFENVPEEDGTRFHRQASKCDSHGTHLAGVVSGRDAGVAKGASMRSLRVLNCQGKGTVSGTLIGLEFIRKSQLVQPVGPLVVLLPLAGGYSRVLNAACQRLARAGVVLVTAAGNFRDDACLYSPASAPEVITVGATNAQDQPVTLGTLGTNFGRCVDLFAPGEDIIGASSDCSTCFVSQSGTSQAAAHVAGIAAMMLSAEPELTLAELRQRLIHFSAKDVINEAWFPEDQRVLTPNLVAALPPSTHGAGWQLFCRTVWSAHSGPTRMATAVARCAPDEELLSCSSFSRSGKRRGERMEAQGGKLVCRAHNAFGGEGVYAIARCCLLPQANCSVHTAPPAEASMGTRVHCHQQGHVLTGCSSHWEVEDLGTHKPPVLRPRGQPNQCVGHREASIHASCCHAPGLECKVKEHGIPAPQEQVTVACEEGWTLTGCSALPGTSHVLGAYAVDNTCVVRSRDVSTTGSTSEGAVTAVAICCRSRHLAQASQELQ

As a reminder, the DC50 is the concentration giving 50% degradation. With `C[C@]1(CC(=O)Nc2nccs2)NCCc2cc(OCCOCCNC(=O)CC34CC5CC(CC(C5)C3)C4)c(Oc3ccc(-c4ccc(C(=O)O)cc4)c(F)c3)cc21` [Example 104, 4′-(((R)-6-(2-(2-(2-((3r,5r,7r)-adamantan-1-yl)acetamido)ethoxy)ethoxy)-1-methyl-1-(2-oxo-2-(thiazol-2-ylamino)ethyl)-1,2,3,4-tetrahydroisoquinolin-7-yl)oxy)-2′-fluoro-[1,1′-biphenyl]-4-carboxylic acid], in test [1], the IC50 worked out at 0.222 µM. For the same compound, the 50% degradation concentration (DC50) in test [2] (setting [3]) was 7.52 µM; in test [2] (setting [4]) it was 1.53 µM.

With `CC(C)(C)OC(=O)/N=C(/NCCC[C@@H](NC(=O)OC(C)(C)C)C(=O)NCCOCCOc1cc2c(cc1Oc1ccc(-c3ccc(C(=O)O)cc3)c(F)c1)[C@@](C)(CC(=O)Nc1nccs1)NCC2)NC(=O)OC(C)(C)C` [Example 106, 4′-(((R)-6-(((R,Z)-6,11-bis((tert-butoxycarbonyl)amino)-2,2-dimethyl-4,12-dioxo-3,16-dioxa-5,7,13-triazaoctadec-5-en-18-yl)oxy)-1-methyl-1-(2-oxo-2-(thiazol-2-ylamino)ethyl)-1,2,3,4-tetrahydroisoquinolin-7-yl)oxy)-2′-fluoro-[1,1′-biphenyl]-4-carboxylic acid], the IC50 in test [1] came to 0.655 µM. The DC50 in test [2] (setting [3]) came out at 3.42 µM; in test [2] (setting [4]), 4.82 µM.

As to `COC(=O)c1ccc(-c2ccc(Oc3cc4c(cc3OCCOCCNC(=O)COCC(=O)N[C@H](C(=O)N3C[C@H](O)C[C@H]3C(=O)NCc3ccc(-c5scnc5C)cc3)C(C)(C)C)CCN[C@]4(C)CC(=O)Nc3nccs3)cc2F)cc1` [Example 107, methyl 2′-fluoro-4′-(((R)-6-(((S)-13-((2S,4R)-4-hydroxy-2-((4-(4-methylthiazol-5-yl)benzyl)carbamoyl)pyrrolidine-1-carbonyl)-14,14-dimethyl-7,11-dioxo-3,9-dioxa-6,12-diazapentadecyl)oxy)-1-methyl-1-(2-oxo-2-(thiazol-2-ylamino)ethyl)-1,2,3,4-tetrahydroisoquinolin-7-yl)oxy)-[1,1′-biphenyl]-4-carboxylate], the IC50 in test [1] came to 0.831 µM. In addition, the “PCSK9 DC50 (Mature) μM” value in test [2] (setting [5]) was “inactive”. Besides, in test [2] (setting [6]), the “PCSK9 DC50 (Pro) μM” value is “Inactive”.

Turning to `CC(C)Cc1ccc([C@H](C)C(=O)NCCOCCOc2cc3c(cc2Oc2ccc(-c4ccc(C(=O)O)cc4)c(F)c2)[C@@](C)(CC(=O)Nc2nccs2)NCC3)cc1` [Example 108], in test [1], the IC50 was found to be 0.578 µM. In test [2] (setting [5]), the “PCSK9 DC50 (Mature) μM” value is “inactive”. Further, the “PCSK9 DC50 (Pro) μM” value in test [2] (setting [6]) was “Inactive”.

The values are drawn from patent US11008313B2, “Substituted 1-methyl-1,2,3,4-tetrahydroisoquinoline molecules as PCSK9 allosteric binders” (Merck Sharp & Dohme Corp., priority 2016, dated 2021).
